Assay results taken from ChEMBL document CHEMBL4000192, “Identification and optimization of a novel series of indoleamine 2,3-dioxygenase inhibitors” (Bioorg Med Chem Lett, 2017).

What was measured:
HeLa = experiment: Cytotoxic activity against human HeLa cells by […]; format: cell-based
[1] = target: T1, Indoleamine 2,3-dioxygenase 1 (Homo sapiens, UniProt P14902); experiment: Inhibition of IDO1 in IFN-gamma stimulated human HeLa cells assessed as inhibition of kynurenine production preincubated with cells followed by IFN-gamma addition measured after 20 hrs; format: cell-based
Target sequence in this assay (P14902 whole entry): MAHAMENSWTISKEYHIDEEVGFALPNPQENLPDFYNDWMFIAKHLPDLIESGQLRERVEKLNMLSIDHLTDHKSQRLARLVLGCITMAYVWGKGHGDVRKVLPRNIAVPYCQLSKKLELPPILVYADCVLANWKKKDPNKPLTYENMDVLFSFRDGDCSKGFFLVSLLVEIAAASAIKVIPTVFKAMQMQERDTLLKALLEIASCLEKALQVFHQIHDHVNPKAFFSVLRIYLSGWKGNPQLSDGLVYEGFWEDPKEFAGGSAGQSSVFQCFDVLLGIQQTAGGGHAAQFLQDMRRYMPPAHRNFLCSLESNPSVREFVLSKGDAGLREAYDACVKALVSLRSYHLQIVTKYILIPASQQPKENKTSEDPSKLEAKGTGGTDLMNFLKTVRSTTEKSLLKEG

Cytochrome P450 2C9 = Cytochrome P450 2C9 (Homo sapiens, UniProt P11712); experiment: Inhibition of CYP2C9 (unknown origin); format: ADME
Chain of Cytochrome P450 2C9 (P11712 whole entry): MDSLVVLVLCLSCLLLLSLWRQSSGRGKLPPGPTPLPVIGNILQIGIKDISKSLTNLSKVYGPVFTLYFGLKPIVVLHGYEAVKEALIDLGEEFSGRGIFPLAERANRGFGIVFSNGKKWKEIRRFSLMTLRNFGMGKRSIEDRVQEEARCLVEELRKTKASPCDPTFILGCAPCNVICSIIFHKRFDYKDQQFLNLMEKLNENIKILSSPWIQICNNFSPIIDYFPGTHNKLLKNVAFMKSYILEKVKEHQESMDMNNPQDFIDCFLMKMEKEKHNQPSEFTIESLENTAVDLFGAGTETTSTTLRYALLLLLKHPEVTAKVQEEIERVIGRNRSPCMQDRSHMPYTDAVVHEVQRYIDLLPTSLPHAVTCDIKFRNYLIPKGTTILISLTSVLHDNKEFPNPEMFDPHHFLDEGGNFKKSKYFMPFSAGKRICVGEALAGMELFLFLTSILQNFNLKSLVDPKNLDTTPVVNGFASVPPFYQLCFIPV

Cytochrome P450 1A2 = target: T2, Cytochrome P450 1A2 (Homo sapiens, UniProt P05177); experiment: Inhibition of CYP1A2 (unknown origin); format: ADME
T2 sequence (P05177 whole entry): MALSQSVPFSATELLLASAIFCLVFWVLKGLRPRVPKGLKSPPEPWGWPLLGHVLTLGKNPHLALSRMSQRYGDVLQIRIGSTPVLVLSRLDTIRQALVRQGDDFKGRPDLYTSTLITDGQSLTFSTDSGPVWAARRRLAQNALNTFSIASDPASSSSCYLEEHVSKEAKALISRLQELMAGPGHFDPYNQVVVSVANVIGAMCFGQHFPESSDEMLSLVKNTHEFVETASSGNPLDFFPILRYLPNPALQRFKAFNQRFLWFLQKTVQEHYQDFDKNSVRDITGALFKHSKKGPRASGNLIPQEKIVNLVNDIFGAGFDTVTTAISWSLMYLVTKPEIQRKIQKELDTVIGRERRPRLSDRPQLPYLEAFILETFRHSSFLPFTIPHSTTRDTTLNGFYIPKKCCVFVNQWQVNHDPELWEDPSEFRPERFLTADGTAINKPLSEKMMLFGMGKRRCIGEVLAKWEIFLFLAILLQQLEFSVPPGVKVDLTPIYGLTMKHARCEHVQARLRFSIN

Cytochrome P450 2C19 = Cytochrome P450 2C19 (Homo sapiens, UniProt P33261); experiment: Inhibition of CYP2C19 (unknown origin); format: ADME
Chain of Cytochrome P450 2C19 (P33261 whole entry): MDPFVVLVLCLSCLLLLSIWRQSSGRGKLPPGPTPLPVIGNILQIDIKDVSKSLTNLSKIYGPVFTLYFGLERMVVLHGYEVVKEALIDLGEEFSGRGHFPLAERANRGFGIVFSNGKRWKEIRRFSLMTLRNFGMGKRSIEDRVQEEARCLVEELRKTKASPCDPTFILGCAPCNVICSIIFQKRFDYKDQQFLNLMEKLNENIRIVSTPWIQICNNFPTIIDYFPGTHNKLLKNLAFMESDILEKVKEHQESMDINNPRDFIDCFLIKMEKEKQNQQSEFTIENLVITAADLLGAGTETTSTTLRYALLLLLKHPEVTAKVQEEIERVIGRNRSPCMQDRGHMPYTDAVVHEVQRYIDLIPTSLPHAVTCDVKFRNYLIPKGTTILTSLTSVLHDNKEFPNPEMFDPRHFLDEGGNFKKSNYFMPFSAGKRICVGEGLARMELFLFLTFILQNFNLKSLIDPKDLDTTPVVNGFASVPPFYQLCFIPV

Cytochrome P450 2D6 = Cytochrome P450 2D6 (Homo sapiens, UniProt P10635); experiment: Inhibition of CYP2D6 (unknown origin); format: ADME
Chain of Cytochrome P450 2D6 (P10635 whole entry): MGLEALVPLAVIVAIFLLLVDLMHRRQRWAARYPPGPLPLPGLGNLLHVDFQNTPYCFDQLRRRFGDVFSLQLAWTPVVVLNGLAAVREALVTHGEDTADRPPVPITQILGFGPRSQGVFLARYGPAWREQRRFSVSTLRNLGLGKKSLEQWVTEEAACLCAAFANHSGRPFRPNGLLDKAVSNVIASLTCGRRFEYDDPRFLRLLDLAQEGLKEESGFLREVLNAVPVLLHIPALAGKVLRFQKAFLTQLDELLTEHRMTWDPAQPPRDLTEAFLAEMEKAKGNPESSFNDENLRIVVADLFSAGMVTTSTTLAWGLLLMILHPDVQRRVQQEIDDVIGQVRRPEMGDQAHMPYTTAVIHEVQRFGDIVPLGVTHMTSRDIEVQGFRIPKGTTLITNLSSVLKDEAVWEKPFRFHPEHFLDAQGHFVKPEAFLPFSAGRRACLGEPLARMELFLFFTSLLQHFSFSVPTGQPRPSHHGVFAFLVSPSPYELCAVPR

Cytochrome P450 3A4 [2] = target: T3, Cytochrome P450 3A4 (Homo sapiens, UniProt P08684); experiment: Inhibition of CYP3A4 (unknown origin) using BFC as substrate; format: ADME
T3 sequence (P08684 whole entry): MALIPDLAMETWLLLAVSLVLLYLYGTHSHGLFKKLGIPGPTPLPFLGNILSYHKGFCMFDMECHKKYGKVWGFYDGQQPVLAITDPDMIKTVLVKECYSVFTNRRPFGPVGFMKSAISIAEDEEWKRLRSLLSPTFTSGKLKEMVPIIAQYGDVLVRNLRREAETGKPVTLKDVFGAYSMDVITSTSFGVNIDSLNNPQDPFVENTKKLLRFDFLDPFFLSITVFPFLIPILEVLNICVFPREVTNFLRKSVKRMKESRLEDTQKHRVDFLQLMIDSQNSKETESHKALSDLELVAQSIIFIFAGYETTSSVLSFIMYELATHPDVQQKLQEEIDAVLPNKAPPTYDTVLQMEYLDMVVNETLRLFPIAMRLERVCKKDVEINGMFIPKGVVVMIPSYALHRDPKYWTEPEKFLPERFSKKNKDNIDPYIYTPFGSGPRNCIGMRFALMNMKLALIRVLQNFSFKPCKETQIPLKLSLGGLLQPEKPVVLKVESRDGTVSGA

Cytochrome P450 3A4 [3] = target: T3, Cytochrome P450 3A4; experiment: Inhibition of CYP3A4 (unknown origin) using BZR as substrate; format: ADME
Cytochrome P450 2C8 = target: T4, Cytochrome P450 2C8 (Homo sapiens, UniProt P10632); experiment: Inhibition of CYP2C8 (unknown origin); format: ADME
T4 sequence (P10632 whole entry): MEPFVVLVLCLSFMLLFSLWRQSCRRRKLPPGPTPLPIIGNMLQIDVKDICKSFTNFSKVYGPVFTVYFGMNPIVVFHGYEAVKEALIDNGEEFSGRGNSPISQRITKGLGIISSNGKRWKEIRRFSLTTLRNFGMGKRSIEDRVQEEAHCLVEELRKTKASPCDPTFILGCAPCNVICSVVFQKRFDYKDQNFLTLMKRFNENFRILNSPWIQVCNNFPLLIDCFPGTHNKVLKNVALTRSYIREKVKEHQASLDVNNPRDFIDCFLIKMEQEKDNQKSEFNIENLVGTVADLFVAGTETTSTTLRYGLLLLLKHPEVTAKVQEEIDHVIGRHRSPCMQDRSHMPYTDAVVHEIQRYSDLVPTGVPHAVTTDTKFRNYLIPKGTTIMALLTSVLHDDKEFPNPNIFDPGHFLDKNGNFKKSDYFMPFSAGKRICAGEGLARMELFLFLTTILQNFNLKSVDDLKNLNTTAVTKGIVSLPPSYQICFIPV

Cytochrome P450 2B6 = target: T5, Cytochrome P450 2B6 (Homo sapiens, UniProt P20813); experiment: Inhibition of CYP2B6 (unknown origin); format: ADME
T5 sequence (P20813 whole entry): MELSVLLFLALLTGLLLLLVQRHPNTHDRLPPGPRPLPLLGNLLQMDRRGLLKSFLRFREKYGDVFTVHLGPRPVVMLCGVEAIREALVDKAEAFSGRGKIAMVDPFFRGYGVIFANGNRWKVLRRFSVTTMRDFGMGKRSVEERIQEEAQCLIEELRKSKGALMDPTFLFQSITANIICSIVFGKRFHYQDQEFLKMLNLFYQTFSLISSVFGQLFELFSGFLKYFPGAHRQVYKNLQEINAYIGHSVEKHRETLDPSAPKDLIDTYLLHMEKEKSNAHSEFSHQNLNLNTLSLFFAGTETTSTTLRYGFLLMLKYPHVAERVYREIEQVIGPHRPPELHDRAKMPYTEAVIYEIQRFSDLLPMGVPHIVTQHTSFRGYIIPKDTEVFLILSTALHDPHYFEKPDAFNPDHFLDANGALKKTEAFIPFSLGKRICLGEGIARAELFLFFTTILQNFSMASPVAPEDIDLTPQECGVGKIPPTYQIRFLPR

[4] = Metabolic stability in human liver microsomes assessed as parent compound remaining at 0.5 uM after 10 mins; format: ADME, microsome; settings: read-out: Stability
[5] = Metabolic stability in rat liver microsomes assessed as parent compound remaining at 0.5 uM after 10 mins; format: ADME, microsome; settings: read-out: Stability
[6] = Metabolic stability in mouse liver microsomes assessed as parent compound remaining at 0.5 uM after 10 mins; format: ADME, microsome; settings: read-out: Stability
[7] = target: T1, Indoleamine 2,3-dioxygenase 1; experiment: Inhibition of IDO1 (unknown origin) using tryptophan as substrate preincubated for 15 mins followed by substrate addition by high-throughput screening assay
Target sequence in this assay (P14902 whole entry): as the sequence (P14902 whole entry) above

[8] = target: T1, Indoleamine 2,3-dioxygenase 1; experiment: Inhibition of IDO1 (unknown origin) at 25 uM using tryptophan as substrate preincubated for 15 mins followed by substrate addition by high-throughput screening assay relative to control
Target sequence in this assay (P14902 whole entry, looked up): as the sequence (P14902 whole entry) above

CC(C)(C)c1ccccc1Oc1ccc(-c2cccc(C(=O)O)c2)cc1NC(=O)Nc1ccccc1
IC50 (HeLa): > 30 µM
IC50 [1]: 1.5 µM

Cc1cccc(NC(=O)Nc2cc(-c3cccc(C(=O)O)c3)ccc2Oc2ccccc2C(C)(C)C)c1
IC50 (HeLa): > 30 µM

Cc1ccc(NC(=O)Nc2cc(-c3cccc(C(=O)O)c3)ccc2Oc2ccccc2C(C)(C)C)cc1
IC50 (HeLa): > 30 µM

COc1ccc(-c2ccc(Oc3cccc4c3CCCC4)c(NC(=O)Nc3cccc(C)c3)c2)cc1C(=O)O
IC50 (Cytochrome P450 2C9): > 3 µM
IC50 (Cytochrome P450 1A2): > 3 µM
IC50 (Cytochrome P450 2C19): > 3 µM
IC50 (Cytochrome P450 2D6): > 3 µM
IC50 (Cytochrome P450 3A4 [2]): > 3 µM
IC50 (Cytochrome P450 3A4 [3]): > 3 µM
IC50 (Cytochrome P450 2C8): > 3 µM
IC50 (Cytochrome P450 2B6): > 3 µM
IC50 (HeLa): > 30 µM
remaining at 10 min, 0.5 µM [4]: 84%
remaining at 10 min, 0.5 µM [5]: 71%
remaining at 10 min, 0.5 µM [6]: 86%

CC(C)(C)c1ccccc1Oc1ccc(-c2cccc(C(=O)O)c2)cc1NC(=O)Nc1ccc(Cl)cc1
IC50 (HeLa): > 30 µM

COc1ccc(-c2ccc(Oc3ccccc3Cl)c(NC(=O)Nc3ccc(C)cc3)c2)cc1C(=O)O
IC50 (HeLa): > 30 µM

CCc1ccccc1Oc1ccc(-c2ccc(OC)c(C(=O)O)c2)cc1NC(=O)Nc1ccc(C)cc1
IC50 (HeLa): > 30 µM

COc1ccc(-c2ccc(Oc3cccc4c3CCCC4)c(NC(=O)Nc3ccc(C)cc3)c2)cc1C(=O)O
IC50 (HeLa): > 30 µM
remaining at 10 min, 0.5 µM [4]: 100%
remaining at 10 min, 0.5 µM [5]: 95%
remaining at 10 min, 0.5 µM [6]: 69%
IC50 [1]: 0.1 µM

CCCc1ccccc1Oc1ccc(-c2ccc(OC)c(C(=O)O)c2)cc1NC(=O)Nc1ccc(C)cc1
IC50 (HeLa): > 30 µM

CC(C)(C)c1ccccc1Oc1ccc(-c2cccc(C(=O)O)c2)cc1NC(=O)Nc1ccc(OC(F)F)cc1
IC50 (HeLa): > 30 µM
IC50 [1]: 2.6 µM

CC(C)(C)c1ccccc1Oc1ccc(-c2cccc(C(=O)O)c2)cc1NC(=O)Nc1ccc(OC(F)(F)F)cc1
IC50 [7]: 0.087 µM
IC50 (Cytochrome P450 2C9): 2.5 µM
IC50 (Cytochrome P450 1A2): > 5 µM
IC50 (Cytochrome P450 2C19): > 5 µM
IC50 (Cytochrome P450 2D6): > 5 µM
IC50 (Cytochrome P450 3A4 [2]): > 5 µM
IC50 (Cytochrome P450 3A4 [3]): > 5 µM
IC50 (Cytochrome P450 2C8): > 5 µM
IC50 (Cytochrome P450 2B6): > 5 µM
IC50 (HeLa): 22 µM
inhibition [8]: > 75%
IC50 [1]: 4 µM

COc1ccc(-c2ccc(Oc3ccccc3C(C)(C)C)c(NC(=O)Nc3ccc(C)cc3)c2)cc1C(=O)O
IC50 (HeLa): > 30 µM
IC50 [1]: 0.35 µM

COc1ccc(-c2ccc(Oc3ccccc3C(C)(C)CO)c(NC(=O)Nc3ccc(C)cc3)c2)cc1C(=O)O
IC50 (HeLa): > 30 µM
IC50 [1]: 2.4 µM

COc1ccc(-c2ccc(Oc3cccc4c3CCCC4)c(NC(=O)Nc3ccccc3C)c2)cc1C(=O)O
IC50 (Cytochrome P450 2C9): > 3 µM
IC50 (Cytochrome P450 1A2): > 3 µM
IC50 (Cytochrome P450 2C19): > 3 µM
IC50 (Cytochrome P450 2D6): > 3 µM
IC50 (Cytochrome P450 3A4 [2]): > 3 µM
IC50 (Cytochrome P450 3A4 [3]): > 3 µM
IC50 (Cytochrome P450 2C8): > 3 µM
IC50 (Cytochrome P450 2B6): > 3 µM
IC50 (HeLa): > 30 µM
remaining at 10 min, 0.5 µM [4]: 41%
remaining at 10 min, 0.5 µM [5]: 65%
remaining at 10 min, 0.5 µM [6]: 70%
IC50 [1]: 0.049 µM

COc1ccc(NC(=O)Nc2cc(-c3cccc(C(=O)O)c3)ccc2Oc2ccccc2C(C)(C)C)cc1
IC50 (HeLa): > 30 µM

COc1ccccc1Oc1ccc(-c2ccc(OC)c(C(=O)O)c2)cc1NC(=O)Nc1ccc(C)cc1
IC50 (HeLa): > 30 µM

COc1ccc(-c2ccc(Oc3ccccc3C(C)C)c(NC(=O)Nc3ccc(C)cc3)c2)cc1C(=O)O
IC50 (HeLa): > 30 µM
IC50 [1]: 0.34 µM

COc1ccc(-c2ccc(Oc3ccccc3C)c(NC(=O)Nc3ccc(C)cc3)c2)cc1C(=O)O
IC50 (HeLa): > 30 µM

COc1ccc(-c2ccc(Oc3ccccc3C#N)c(NC(=O)Nc3ccc(C)cc3)c2)cc1C(=O)O
IC50 (HeLa): > 30 µM
IC50 [1]: 6 µM

C#CCOc1cccc(Oc2ccc(-c3ccc(OC)c(C(=O)O)c3)cc2NC(=O)Nc2ccc(C)cc2)c1C
IC50 (HeLa): > 30 µM

Cc1ccc(NC(=O)Nc2cc(-c3ccc(Cl)c(C(=O)O)c3)ccc2Oc2ccccc2C(C)(C)C)cc1
IC50 (HeLa): > 30 µM

Cc1ccccc1NC(=O)Nc1cc(-c2cccc(C(=O)O)c2)ccc1Oc1ccccc1C(C)(C)C
IC50 (HeLa): > 30 µM
IC50 [1]: 1 µM

Cc1ccc(NC(=O)Nc2cc(-c3cc(Cl)cc(C(=O)O)c3)ccc2Oc2ccccc2C(C)(C)C)cc1
IC50 (HeLa): > 30 µM
IC50 [1]: 0.25 µM

COc1ccc(-c2ccc(Oc3cccc4c3CCC4)c(NC(=O)Nc3ccc(C)cc3)c2)cc1C(=O)O
IC50 (HeLa): > 30 µM

COc1ccc(-c2ccc(Oc3cccc4c3CCCC4)c(NC(=O)Nc3ccccc3Cl)c2)cc1C(=O)O
IC50 (Cytochrome P450 2C9): > 3 µM
IC50 (Cytochrome P450 1A2): > 3 µM
IC50 (Cytochrome P450 2C19): > 3 µM
IC50 (Cytochrome P450 2D6): > 3 µM
IC50 (Cytochrome P450 3A4 [2]): > 3 µM
IC50 (Cytochrome P450 3A4 [3]): > 3 µM
IC50 (Cytochrome P450 2C8): > 3 µM
IC50 (Cytochrome P450 2B6): > 3 µM
IC50 (HeLa): > 30 µM
remaining at 10 min, 0.5 µM [4]: 74%
remaining at 10 min, 0.5 µM [5]: 83%
remaining at 10 min, 0.5 µM [6]: 74%
IC50 [1]: 0.022 µM

COc1ccc(-c2ccc(Oc3cccc(C)c3C)c(NC(=O)Nc3ccc(C)cc3)c2)cc1C(=O)O
IC50 (HeLa): > 30 µM

CCOc1ccc(-c2ccc(Oc3ccccc3C(C)(C)C)c(NC(=O)Nc3ccc(C)cc3)c2)cc1C(=O)O
IC50 (HeLa): > 30 µM

COc1ccc(-c2ccc(Oc3cccc4c3CCCC4)c(NC(=O)Nc3ccccc3)c2)cc1C(=O)O
IC50 (HeLa): > 10 µM
remaining at 10 min, 0.5 µM [4]: 80%
remaining at 10 min, 0.5 µM [5]: 92%
remaining at 10 min, 0.5 µM [6]: 96%
IC50 [1]: 0.062 µM

CC(C)(C)c1ccccc1Oc1ccc(-c2cccc(C(=O)O)c2)cc1NC(=O)Nc1ccc(Br)cc1
IC50 (HeLa): > 30 µM

COc1ccc(-c2ccc(Oc3cccc4c3CCCC4)c(NC(=O)Nc3ccccc3F)c2)cc1C(=O)O
IC50 (HeLa): > 10 µM
remaining at 10 min, 0.5 µM [4]: 95%
remaining at 10 min, 0.5 µM [5]: 72%
remaining at 10 min, 0.5 µM [6]: 77%

Cc1ccc(NC(=O)Nc2cc(-c3cccc(C(=O)O)c3F)ccc2Oc2ccccc2C(C)(C)C)cc1
IC50 (HeLa): > 30 µM
IC50 [1]: 4.5 µM

COc1ccc(-c2ccc(Oc3cccc(C(C)(C)C)c3)c(NC(=O)Nc3ccc(C)cc3)c2)cc1C(=O)O
IC50 (HeLa): > 30 µM
